Some test systems named below: HT-29; KM12; NCI-H226; SW-620; DU-145; SN12C; HCT-116; RPMI-8226; BT-549; COLO 205; NCI-H460; HOP-62; MDA-MB-435; U-251; SF-268; T47D; M14; OVCAR-5; Malme-3M; NCI-H522.
Holding throughout (test): DTP human tumour cell line panel, 48 h

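Cultured in 96-well plates, cells were exposed to test compound for 48 hours across five concentrations. Abbreviation: GI50, concentration required for 50% inhibition of growth.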 The source made the active and inactive calls. Rule as the data show it: active = GI50 up to about 1.1 µM and inactive = higher.

For `OC1(c2ccc(-c3ccccc3)cc2)c2ccccc2C2=NCCN21` (configuration not stated), the GI50 in the assay with HT-29 is 21.4 µM (inactive); in the assay on KM12, 22.9 µM (inactive); in the assay with NCI-H226 it was 18.3 µM (inactive); in the assay on SW-620, 45.4 µM (inactive); with DU-145, > 100 µM (inactive); in the assay with SN12C, > 100 µM (inactive). Moreover, the GI50 with HCT-116 is 30.3 µM (inactive); with RPMI-8226, 29 µM (inactive); in the assay with BT-549, > 100 µM (inactive); in the assay on COLO 205, 21.4 µM (inactive); with NCI-H460 it was 45.8 µM (inactive); in the assay with HOP-62, 16.6 µM (inactive). Further, the GI50 with MDA-MB-435 was 32.2 µM (inactive); in the assay with U-251, 37.7 µM (inactive); in the assay with SF-268, 29.6 µM (inactive); in the assay with T47D, 86.9 µM (inactive).

In the case of `N/C(S)=N/N=C/c1ncccc1O`, the GI50 is 3.56 µM (inactive) with HT-29; 2.6 µM (inactive) with KM12; 2.95 µM (inactive) with NCI-H226; 1.64 µM (inactive) with SW-620; 0.964 µM (active) with SN12C; 1.76 µM (inactive) in the assay with HCT-116. Besides, the GI50 was 3.47 µM (inactive) in the assay on BT-549; 2.83 µM (inactive) with COLO 205; 1.29 µM (inactive) in the assay with NCI-H460; 1.23 µM (inactive) in the assay with HOP-62; 3.81 µM (inactive) in the assay with MDA-MB-435; 1.95 µM (inactive) with M14. Further, the GI50 was 1.73 µM (inactive) in the assay on U-251, 3.1 µM (inactive) with OVCAR-5, 1.95 µM (inactive) with Malme-3M and 3.14 µM (inactive) with T47D.

For the molecule `Cc1[nH]c2ccccc2c1-c1cc(-c2cc(-c3c(C)[nH]c4ccccc34)nc(N)n2)nc(N)n1`, the GI50 with HT-29 is > 100 µM (inactive); in the assay with KM12, > 100 µM (inactive); with NCI-H522 it was 51.8 µM (inactive); in the assay with NCI-H226 it was 37.2 µM (inactive); in the assay with SW-620, > 100 µM (inactive); with SN12C it was > 100 µM (inactive). In addition, the GI50 in the assay on HCT-116, in the assay with RPMI-8226, in the assay on BT-549, in the assay on COLO 205, with NCI-H460 and with HOP-62 was > 100 µM (inactive) throughout. Moreover, the GI50 in the assay on MDA-MB-435, in the assay on M14, in the assay with U-251, with OVCAR-5, with Malme-3M and in the assay on SF-268 was > 100 µM (inactive) in each case. For the same molecule, the GI50 in the assay on T47D was > 100 µM (inactive).

Take `O=C1C(NS(=O)(=O)c2ccccc2)=C(N(Cc2ccccc2)Cc2ccccc2)C(=O)c2ccccc21`: the GI50 in the assay on HT-29 was 60.3 µM (inactive); in the assay on KM12, > 100 µM (inactive); in the assay on NCI-H226, 64.7 µM (inactive); with SW-620, 38.9 µM (inactive); with DU-145, 48.1 µM (inactive); in the assay with SN12C, 41.5 µM (inactive). Further, the GI50 with HCT-116 is 36.7 µM (inactive); in the assay on RPMI-8226, 18.8 µM (inactive); with BT-549 it was 16.9 µM (inactive); in the assay on COLO 205, 39.6 µM (inactive); with NCI-H460, 36.6 µM (inactive); with HOP-62, 41 µM (inactive). The GI50 was 47.3 µM (inactive) in the assay on MDA-MB-435; 43.7 µM (inactive) in the assay on M14; 35 µM (inactive) with U-251; > 100 µM (inactive) in the assay with OVCAR-5; 0.273 µM (active) with Malme-3M; 88.1 µM (inactive) in the assay with SF-268. For the same molecule, in the assay with T47D, the GI50 was 32.1 µM (inactive).

Take `c1cc2c3ccsc3c3sccc3c2s1`: the GI50 with HT-29 is 99.5 µM (inactive); with KM12, > 100 µM (inactive); in the assay on NCI-H226 it was 10 µM (inactive); with SW-620 it was > 100 µM (inactive); with DU-145, > 100 µM (inactive); with SN12C, > 100 µM (inactive). The GI50 in the assay with HCT-116 is > 100 µM (inactive); in the assay with RPMI-8226 it was > 100 µM (inactive); in the assay on BT-549, > 100 µM (inactive); in the assay on COLO 205 it was > 100 µM (inactive); in the assay with NCI-H460 it was > 100 µM (inactive); in the assay with HOP-62 it was 21.4 µM (inactive). The GI50 with MDA-MB-435, in the assay on M14, in the assay with U-251, with OVCAR-5, with SF-268 and with T47D was > 100 µM (inactive) each time.

As to `COc1c2cc(C(C)(C)C)cc1CSCc1cc(C(C)(C)C)cc(c1OC)CCCCC2`, the GI50 in the assay on HT-29 was > 50 µM (inactive); in the assay on KM12, > 50 µM (inactive); with NCI-H226 it was 20.5 µM (inactive); in the assay on SW-620, > 50 µM (inactive); in the assay on DU-145, 31.8 µM (inactive); in the assay with SN12C, > 50 µM (inactive). The GI50 was 27.4 µM (inactive) in the assay with HCT-116; 21.6 µM (inactive) with BT-549; > 50 µM (inactive) in the assay with COLO 205; 31.6 µM (inactive) with NCI-H460; > 50 µM (inactive) with HOP-62; > 50 µM (inactive) in the assay with MDA-MB-435. The GI50 in the assay on M14 is 46.7 µM (inactive); in the assay with U-251, 27 µM (inactive); with OVCAR-5 it was > 50 µM (inactive); with Malme-3M it was 29 µM (inactive); with SF-268, 46.2 µM (inactive); in the assay with T47D, 30 µM (inactive).

`Cc1c(C)c(C)c(-n2[nH]c(=O)n(C)c2=O)c(C)c1C`: the GI50 in the assay on HT-29, in the assay on KM12, with NCI-H226, with SW-620, with DU-145 and in the assay with SN12C was > 100 µM (inactive) in each case. Besides, the GI50 in the assay with HCT-116, in the assay with RPMI-8226, in the assay with BT-549, with COLO 205, in the assay with NCI-H460 and in the assay on HOP-62 was > 100 µM (inactive) throughout. Also, the GI50 with MDA-MB-435, in the assay with M14, in the assay on U-251, in the assay with OVCAR-5, in the assay on SF-268 and in the assay on T47D was > 100 µM (inactive) in each case.

As for `O=S(=O)(c1cc(Cl)ccc1Cl)N1CCN(c2ccc(Cl)c(Cl)c2)CC1`, the GI50 in the assay on HT-29 is 88.1 µM (inactive); in the assay on KM12 it was 28.2 µM (inactive); in the assay on NCI-H522, 18.5 µM (inactive); with NCI-H226, 21.7 µM (inactive); in the assay with SW-620, > 100 µM (inactive); in the assay with DU-145, > 100 µM (inactive). Also, the GI50 is 78.5 µM (inactive) in the assay on SN12C; 34.6 µM (inactive) with HCT-116; > 100 µM (inactive) in the assay on RPMI-8226; 33.3 µM (inactive) with BT-549; > 10 µM (inactive) in the assay on NCI-H460; 18.2 µM (inactive) with HOP-62. Further, the GI50 in the assay on M14 is 39.6 µM (inactive); in the assay with U-251, 21.7 µM (inactive); in the assay on OVCAR-5, > 100 µM (inactive); in the assay with Malme-3M, 37.7 µM (inactive); in the assay with SF-268, 27.3 µM (inactive); with T47D it was 20.4 µM (inactive).

Take `CCN1C/C(=C\c2ccc(Cl)cc2)c2nc(N)c(C#N)c(-c3ccc(Cl)cc3)c2C1`: the GI50 with HT-29, with KM12, in the assay on NCI-H522, with NCI-H226, in the assay on SW-620 and in the assay with DU-145 was > 100 µM (inactive) in each case. The GI50 with HCT-116, with RPMI-8226, in the assay with BT-549, with COLO 205, with NCI-H460 and in the assay on HOP-62 was > 100 µM (inactive) throughout. In addition, the GI50 with MDA-MB-435, with M14, with U-251, in the assay with OVCAR-5, in the assay on Malme-3M and in the assay with SF-268 was > 100 µM (inactive) in each case.

In the case of `Oc1ccc2c(c1)OCC1c3ccccc3OC21` (configuration not stated), the GI50 in the assay with HT-29 was 37.9 µM (inactive); in the assay on KM12, 45.4 µM (inactive); in the assay on NCI-H226, > 100 µM (inactive); in the assay on SW-620, 63.5 µM (inactive); in the assay on DU-145 it was > 100 µM (inactive); in the assay with SN12C it was 51.6 µM (inactive). In addition, the GI50 is 91.2 µM (inactive) in the assay on HCT-116; 45.7 µM (inactive) in the assay on RPMI-8226; 55.2 µM (inactive) in the assay with BT-549; > 100 µM (inactive) in the assay with COLO 205; 41.6 µM (inactive) in the assay with NCI-H460; > 100 µM (inactive) with HOP-62. For the same molecule, the GI50 was 33.8 µM (inactive) in the assay on MDA-MB-435; 74 µM (inactive) in the assay with M14; 42.6 µM (inactive) with U-251; > 100 µM (inactive) in the assay on OVCAR-5; 25.4 µM (inactive) in the assay with SF-268; > 100 µM (inactive) in the assay on T47D.

With `Cc1c2cccc-2c2cc(O)c3ccccc3c2n1-c1ccc(N(C)C)cc1`, the GI50 with HT-29 was 16.7 µM (inactive); in the assay with KM12 it was 6.82 µM (inactive); in the assay on NCI-H522, 14.8 µM (inactive); with NCI-H226 it was 9.68 µM (inactive); in the assay on SW-620 it was 20.7 µM (inactive); in the assay on SN12C it was 16.1 µM (inactive). Also, the GI50 with HCT-116 is 15.7 µM (inactive); in the assay with RPMI-8226, 6.22 µM (inactive); in the assay on BT-549 it was 10.7 µM (inactive); in the assay with COLO 205 it was 16.1 µM (inactive); in the assay on NCI-H460 it was 15.5 µM (inactive); with HOP-62 it was 12.2 µM (inactive). The GI50 in the assay on MDA-MB-435 was 13.1 µM (inactive); in the assay with M14, 14.5 µM (inactive); in the assay on U-251, 13.2 µM (inactive); with OVCAR-5, 10.9 µM (inactive); in the assay with Malme-3M it was 15.6 µM (inactive); in the assay with SF-268, 15.9 µM (inactive). Moreover, the GI50 in the assay on T47D is 0.304 µM (active).

The values above are taken from ChEMBL document CHEMBL1201862, “PubChem BioAssay data set” (2004).
